Assays:
[1] = system: RHE; assay: RHE histology and immunohistochemistry (Example 14); assay type: cell-based, human; details: single cytokines, 72 h
Protocol: Normal human epidermal keratinocytes (NHEK) were obtained as previously described, from surgical samples of healthy breast skin (Boniface et al, 2005). NHEK were cultured to 80% of confluence allowing the expression of a large panel of keratinocyte differentiation markers, and then starved for 24 h in Keratinocyte SFM containing 0.03 mM Ca^2+ (Invitrogen Life Technologies, Cergy Pontoise, France) before stimulation. Confluent differentiated cells were stimulated with or without recombinant IL-17A, OSM, TNFα, IL-22 and IL-1α alone at maximum effective concentrations (reported previously around 10 ng/ml (Boniface et al, 2005 and Boniface et al, 2007)) or in combination (R&D systems Europe, Lille, France) during 2 h to 72 h for mRNA quantification. RHE were generated on polycarbonate culture inserts, from surgical samples of paediatric foreskins as previously described (Guenou et al., 2009). RHE were stimulated with or without recombinant IL-17A, OSM, TNFα, IL-22 and IL-1α alone or in combination, with or without a Janus protein Tyrosine Kinases (JAKs) inhibitor 10 μM (Calbiochem, 420099), during 24 h for mRNA quantification or during 72 h for immunohistological analysis.
RHE were washed and fixed with formaldehyde solution. Fixed tissues were dehydrated with increasing ethanol concentrations, embedded in paraffin and sections were carried out using a microtome (4 μm thickness). The sections were deparaffinised, washed and incubated with hydrogen peroxide. The sections were incubated with anti-CK10 (SantaCruz, SC-23877), anti-LOR (Eurogentec, PRB-145P), anti-FLG (SantaCruz, SC-66192), anti-IVL (Biomedical Technologies, BT-601), anti-S100A7 (Clinisciences, IMG-409A) and then detected using a biotin-conjugated secondary antibody (Vector, RTU vectastain universal quick kit, PK-7800). After peroxidase-conjugated streptavidine (Vector, RTU vectastain universal quick kit, PK-7800) and peroxidase substrate addition (Dako, Substrat hyper-sensible AEC+), nuclei were counter-stained using a solution of hematoxylin. Sections were observed using a NIKON E400 microscope. The images were captured using a NIKON DS-Ril and processed with NIS-Elements 3.10 software.

[2] = system: NHEK; assay: In vitro keratinocyte migration assay; assay type: cell-based, human; details: mitomycin-treated wounded NHEK; OSM 10 ng/ml, IL-31 100 ng/ml
Protocol: Keratinocytes were cultured in wells pre-coated with type I collagen (200 μg/ml, Institut Jacques Boy, Reims, France) until they reached 80% confluency. Cells were starved for 48 h in Keratinocyte SFM and then treated with 10 μg/ml of mitomycin C (Sigma) for 2 h to prevent cell proliferation. A cell-free area was created by scraping the keratinocyte monolayer with a plastic pipette tip. Keratinocytes migration to the cell-free area was evaluated after 48 h of culture in the absence or presence of EGF or OSM. Using an inverted phase contrast microscope. The number of migrating keratinocytes was counted in 4 non-overlapping fields. Values represent the mean±SEM of cells per mm^2 beyond the frontiers of the in vitro injury. Student's t test was used for statistical analysis.

[3] = system: NHEK; assay: cDNA macroarrays analysis of 36 cytokines on 154 genes in NHEK; assay type: cell-based, human; details: 10 ng/ml, 24 h
Protocol: The comparison of the effects of 36 different cytokines on the expression of 154 genes of potential interest for skin physiology was performed using home-made cDNA macroarrays analysis. After cytokine stimulation, total RNA was extracted using TRIzoI® Reagent (Invitrogen life Technologies) and conventional 33P-cDNA target synthesis and hybridization were performed (Boniface et al, 2007). Genes were considered regulated if expression levels differed more than 3-fold relative to untreated control and 3-fold relative to mean background noise.

[4] = system: reconstituted human epidermis (RHE); assay: Gene expression profiling of RHE using cDNA macroarrays; assay type: cell-based; details: 10 ng/ml OSM 24 h
Protocol: Total RNA was isolated as described for PCR studies. DNase treatment, polyA^+ RNA enrichment, ^33P-labelled cDNA probe synthesis, purification and hybridization to custom Atlas array membranes (Bernard, Pedretti et al. 2002) were performed according to Clontech's recommendations (Clontech, Palo Alto, USA). Membranes were exposed for 5 days to a Molecular Dynamics Storm storage screen and scanned using a phosphorimager scanner (Molecular Dynamics Storm analyser, Amersham Biosciences, Uppsala, Sweden). After local background substraction, average signal intensity from duplicate spots was normalized for differences in probe labelling using the values obtained for housekeeping genes (Bernard et al., 2002). For each gene, the OSM-induced modulation was expressed as the relative expression value for stimulated versus control sample. Arbitrarily, only modulation above 2 was considered significant for confirmation using RT-real time PCR assay.
For gene expression profiling using cDNA macroarrays, 17 days old RHE were grown for 1 day in SkinEthic maintenance medium prior to stimulation in the absence or presence of OSM for 24 h. Total RNA was isolated and cDNA arrays were performed as described above.

[5] = system: STAT3; assay: STAT3 phosphorylation in NHEK (Western blot); assay type: cell-based, human
Protocol: For STAT3 and MAPK phosphorylation, NHEK were stimulated for 15 min in the presence of the indicated cytokine. Cells were lysed in SDS sample buffer (62.5 mM Tris-HCl pH 6.8, 2% SDS, 10% glycerol, 50 mM DTT, 0.1% bromophenol blue), sonicated and then submitted to SDS-PAGE and transferred onto an Immobilon membrane. The membranes were subsequently incubated overnight with the primary antibody, before being incubated with the appropriate peroxidase-labelled secondary antibody for 60 min. The reaction was visualized by chemiluminescence according to the manufacturer's instructions. Membranes were stripped in 0.1 M glycine pH 2.8 for 2 h and neutralized in 1 M Tris-HCl pH 7.6 before reblotting. For neutralizing experiments, NHEK were incubated with the appropriate antibodies for 2 h before stimulation.

[6] = system: NHEK; assay: Cytokine measurement by ELISA in NHEK culture supernatants; assay type: cell-based, human; details: 10 ng/ml, 96 h
Protocol: NHEK were obtained as previously described, from surgical samples of healthy breast skin (Boniface et al, 2005). NHEK were cultured to 80% of confluence and then starved for 24 h in Keratinocyte SFM without addition of growth factors before stimulation. Cells were stimulated with or without 10 ng/ml of recombinant IL-17A, OSM, TNFα, IL-22 and IL-1α alone or in combination (R&D systems Europe, Lille, France) during 24 h for mRNA quantification or 48 h to 96 h for protein quantification.
Levels of BD2, BD3 and CXCL8 were determined using Human ELISA development kit (Peprotech), and CXCL1 and CXCL5 with DuoSet reagents (R&D Systems Europe).

OSM: human recombinant oncostatin M, cytokine of the IL-6 family
CK10, LOR and FLG expression (immunohistology) ([1]; RHE): decreases expression of CK10, LOR and FLG
IVL expression (immunohistology) ([1]; RHE): strongly
S100A7 expression (immunohistology) ([1]; RHE): strongly induced
RHE histology [1]: significant keratinocyte hyperplasia
Keratinocyte migration to the cell-free area [2]: important migration of NHEK, similar to that observed in the presence of EGF
Number of genes (of 154) whose expression is modified with at least a three fold increase or decrease [3]: at least five genes
S100A7, S100A8, S100A9 and S100 neutrophil protein gene expression [4]: strongly up-regulated
STAT3 tyrosine phosphorylation (P-STAT3) ([5]; NHEK stimulated 15 min with the cytokine): strong induction of tyrosine phosphorylation
OSM concentration down to which plateau P-STAT3 level is still present ([5]; NHEK, 15 min): ≥ 3 ng/mL
BD3 production [6]: significant increase
CXCL1, CXCL5, CXCL8 production, single cytokines [6]: discrete effect
